These results are taken from patent US20230355596A1, “COMPOSITIONS AND METHODS OF USING NMDAR INHIBITORS AND KINASE INHIBITORS TO TREAT LIVER CANCER” (The University of Hong Kong, priority 2022, published 2023).

Data set [1] has as its system MHCC97L cells. As to the kind of experiment: MTT cell viability assay and drug interaction analysis. It counts as cell-based, human. The following applies: single drug.
A further data set deals with RIL-175 cells. The data set can be described thus: Lung metastasis model (tail vein injection). It counts as in vivo, mouse. As to conditions: nude mice, 20 mg/kg ifenprodil, 28 mg/kg sorafenib, 10 days.
For a further data set, the system named is NMDAR subunits. As to conditions: cited from earlier work.
Data set [2] concerns MHCC97L cells. The data set can be described thus: Cell cycle analysis (PI staining, flow cytometry). It counts as cell-based, human. As to conditions: 10 μM ifenprodil, 5 μM sorafenib, 24 hours. The source says:
Cells transduced with florescent proteins were trypsinized, washed with PBS, and resuspended in PBS containing 2% FBS. Resuspended cells were subjected to flow cytometry analysis using the BD FACSCantoII, ACEA NovoCyte Quanteon (Agilent) or BD LSR Fortessa Analyzer (BD Biosciences). The signal of TurboRFP and EGFP was detected by a 561 nm yellow-green laser (610/20 nm) and a 488 nm blue laser (530/30 nm), respectively. For cell cycle analysis, cells harvested by trypsinization were washed by PBS. Cell pellets were fixed by ice-cold 70% ethanol at 4° C. for 1 hour. The fixed cells were rehydrated by replacing ethanol with PBS for 15 minutes at room temperature for cell cycle analysis. To remove RNAs, 5 μl RNase A (10 mg/ml) per 500 μl PBS was added and incubated at 37° C. for 15 minutes. The DNA contents were stained by propidium iodide (ThermoFisher Scientific) for 1 hour at room temperature in dark. Signal was detected by a 561 nm yellow-green laser (581/15 nm). FlowJo software (v10.5.3, Becton Dickinson) was used for data analysis. For cell sorting, cells were collected following the normal trypsinization and PBS washing steps. Cell pellets were resuspended in PBS with 2% FBS and 2X antibiotic-antimycotic. […] Signal was detected by a 488 nm blue laser (530/40 nm). ˜500-fold more cells were sorted into culture medium supplemented with 10% FBS and 2X antibiotic-antimycotic. […]
(In general: Flow cytometry measures light scatter and fluorescence of single cells or particles in a stream.)

The subject of the next data set is HCC organoids. As to the kind of experiment: Limiting dilution spheroid formation assay on organoids. It is filed as cell-based, human. The following applies: 20 μM ifenprodil and 8 μM sorafenib, 3 days. The procedure: Resuspended cells were cultured in DMEM/F12 (ThermoFisher Scientific) medium containing 0.25% methylcellulose (Sigma-Aldrich), 20 ng/ml EGF (Sigma-Aldrich), 10 ng/ml FGF (Sigma-Aldrich), 4 μg/ml insulin (Sigma-Aldrich), 1% B27 (ThermoFisher Scientific), and 1% antibiotic-antimycotic (ThermoFisher Scientific). Serial dilution of cells (5, 10, 20, 50, and 100 cells from the HCC cell lines and cells dissociated from the xenografts; 10, 20, 50, 100, 200 cells from the HCC organoids) were seeded onto a 96-well plate in 6 replicates for each dilution. Fresh medium was replenished every two days. The number of wells with spheroids formed were counted after a 10-day culture. The stem cell frequency was calculated using ELDA: Extreme Limiting Dilution Analysis (internet site bioinf.wehi.edu.au/software/elda/). In the data plots, the y-axis “fraction nonresponding” refers to the log proportion of number of cultures not responding to form spheroids, while the x-axis “dose (number of cells)” refers to the number of cells used in each culture. The slope of the line is the log-active cell fraction, representing the estimated active cell frequency in forming spheroids, and the dotted lines gives the 95% confidence interval.

Data set [3] concerns HCC patients. As to conditions: cited from earlier work.
Data set [4] concerns HCC patients. The following applies: Asian study; cited from earlier work.
Data set [5] relates to HCC patients. The following applies: phase III, first line; cited from earlier work.

Each structure is given as a SMILES string. Where two headings read alike, the source gives them in different places.

As for `CC(C(O)c1ccc(O)cc1)N1CCC(Cc2ccccc2)CC1` (stereo not drawn) [Ifenprodil, ifenprodil], the “HCC growth, NMDAR inhibitor alone” value in the data set on MHCC97L cells [1] was “did not significantly suppress”. Besides, in the data set with RIL-175 cells, the “metastases of mouse HCC cells to form tumors in the lung” value is recorded as “did not affect the metastases”. In addition, in the data set with NMDAR subunits, the NMDAR subunit selectivity result is reported as “more selective for NMDAR1/NMDAR2B subunits” and the “toxicity / safety as therapeutic agent” value is listed as “tested safe in human”. Moreover, in the data set on NMDAR subunits (listed as IFEN), the “toxicity / safety as therapeutic agent” value is reported as “known safety history”. The G1-phase cell-cycle arrest result in the data set on MHCC97L cells [2] was “not with either IFEN or SOR alone”. For the same molecule, the “ability of HCC organoids to assemble tumor spheroids” value with HCC organoids is reported as “not either drug alone”.

With `CNC(=O)c1cc(Oc2ccc(NC(=O)Nc3ccc(Cl)c(C(F)(F)F)c3)cc2)ccn1` [Sorafenib, sorafenib], the median overall survival with HCC patients [3] (SHARP trial) was 10.7 months. The tolerability entry in the data set on HCC patients [3] (phase III trials) was “generally well tolerated”. In addition, in the data set on RIL-175 cells, the “metastases of mouse HCC cells to form tumors in the lung” value was “did not affect the metastases”. Besides, in the data set with HCC patients [4], the median overall survival is reported as 6.5 months. Further, in the data set on HCC patients [5], the Median survival is reported as 9.9 months and the discontinuation rate is 33%. Further, the G1-phase cell-cycle arrest result with MHCC97L cells [2] is “not with either IFEN or SOR alone”. The “ability of HCC organoids to assemble tumor spheroids” value in the data set on HCC organoids is given as “not either drug alone”.
